Four compounds from US8987209B2, “N-carboxyalkyl-auristatin and the use thereof” (Seattle Genetics, Inc., priority 2010, dated 2015) can be followed below.

Square brackets hold non-standard residues; d marks the D form. Peptide text beside a SMILES is read from it. * marks the point of attachment. NMeVal(N-(CH2)3COOH) = CC(C)[C@@H](C(=O)*)N(C)CCCC(=O)O; Dolaproine = CO[C@@H]([C@@H]1CCCN1)[C@@H](C)C(=O)O; Dil = CC[C@H](C)[C@H](NC)[C@@H](CC(=O)O)OC; X5 = C[C@@H](N*)[C@@H](O)c1ccccc1; NMeV = CN[C@H](C(=O)O)C(C)C

In data set [1] the test system is human renal carcinoma cell line 786-0. Kind of data set: Anti-proliferative effect on renal cell carcinoma 786-0 cell line (MTT assay). The data set is classed as cell-based. Particulars: 786-0 cells, incubation 48 to 96 hours, serum free medium or 2% FCS. As for the experimental part: B-1. Determination of Anti-proliferative Effects of Renal Cell Carcinoma 786-0 Cell Line:
A defined number of cells of the human renal carcinoma cell line 786-0 were cultured in a 96 well micro titer plate in rich medium (2500 or 7.000 cells/well) and then incubated over night at 37° C./5% CO2. After 18 hours the seed medium was replaced by a serum free medium or medium with 2% FCS. The treatment began with measuring out the respective test substances in varying concentrations (10^−5 M to 10^−14 M). Incubation times of between 48 hours and 96 hours were chosen. The proliferation was determined by means of the MTT assay (ATCC, Manassas, Va., USA, catalogue no. 30-1010K). After completion of incubation period the MTT reagent was incubated with the cells for 4 hours before lysis occurred over night by measuring out the detergent. The created stain was detected at 570 nm. The proliferation of the cells, which were treated identically to the other cells but without the test substance was defined as the 100% value. The data obtained from this test represent triple determinations and at least two experiments had been carried out independently of each other.
Background: Tetrazolium assays rely on reduction of a dye to a coloured formazan, in cell work by metabolically active cells.

The test system of a further data set is HT-29 wt cell line. Kind of data set: Anti-proliferative effect on HT-29 wt cell line (MTT assay). The data set is classed as cell-based, human. Conditions: HT-29 wt cells, incubation 48 to 96 hours, medium with 10% FCS. How it is done: B-2. Determination of Anti-proliferative Effects of HT-29 wt Cell Line:
After 18 hours the seed medium was replaced by a fresh medium with 10% FCS. The treatment started with measuring out the respective test substance. The dose-response curves were determined of the investigative substances with a concentration of 10^−5 M to 10^−14 M (1:10 dilutions). Incubation times of between 48 hours and 96 hours were chosen. The proliferation was detected by means of the MTT assay (ATCC, Manassas, Va., USA, catalogue no. 30-1010K). After completion of selected incubation period the MTT reagent was incubated with the cells for 4 hours before lysis occurred over night by measuring out the detergent. The created stain was detected at 570 nm. The proliferation of the cells, which were treated identically to the other cells but without the test substance, was defined as the 100% value. The data obtained from this test represent triple determinations and at least two experiments had been carried out independently of each other.

The next data set deals with Caco-2-cells. Kind of data set: Cell permeability, flux assay using Caco-2 cells. The data set is classed as in vitro ADME. Particulars: basal to apical, 2 hours incubation. How it is done:
(§1) B-5. Determination of Cell Permeability:
(§2) The cell permeability of a substance can be analyzed by means of in vitro tests in a flux assay using Caco-2-cells [M. D. Troutman and D. R. Thakker, Pharm. Res. 20 (8), 1210-1224 (2003)]. For this analysis the cells were cultured on 24 membrane filter plates for 15 to 16 days. In order to determine permeation the test substance in question was given either apical (A) to a HEPES buffer or basal (B) on the cells and incubated for 2 hours. The samples were withdrawn after 0 and 2 hours from the cis and trans compartments. The samples were separated by means of HPLC (Agilent 1200, Böblingen, Germany) using reverse-phase columns. The HPLC system was coupled to a triple quadropol mass spectrometer API 4000 (Applied Biosystems Applera, Darmstadt, Germany) via a turbo ion spray. The permeability was evaluated by means of the Papp value which was calculated with the help of the formula published by Schwab et al. [D. Schwab et al., J. Med. Chem. 46, 1716-1725 (2003)]. A substance was classified as active if the ratio of Papp (B-a) to Papp (A-B) was >2 or <0.5.
(§3) The permeability from B to A [Papp^(B-A)] is particularly important for toxophores which are being released intracellular: The lower the permeability the longer the residence time of the substance in the cell after intracellular release and, consequently, the more time available for interaction with the biochemical target (here: tubulin).

A short description of data set [2]: Cell permeability, flux assay using Caco-2 cells. The data set is classed as in vitro ADME. Particulars: human, basal to apical, 2 hours incubation. How it is done: as §1, §2, §3
(Passage across Caco-2 layers is used to estimate intestinal permeability.)

With `CC[C@H](C)[C@@H]([C@@H](CC(=O)N1CCC[C@H]1[C@H](OC)[C@@H](C)C(=O)N[C@@H](Cc1ccccc1)C(=O)O)OC)N(C)C(=O)[C@@H](NC(=O)[C@@H](NC)C(C)C)C(C)C` [MMAF, Monomethylauristatin F, reference compound] (H-[NMeV]V[Dil][Dolaproine]F-OH), the IC50 (usually the concentration needed to halve the response being measured) in data set [1] worked out at 260 nM; with HT-29 wt cell line it was 10 nM. In addition, in the data set on Caco-2-cells, the “Papp (B-A)” value came to 73 nm/s.
In the case of `CC[C@H](C)[C@@H]([C@@H](CC(=O)N1CCC[C@H]1[C@H](OC)[C@@H](C)C(=O)N[C@@H](Cc1c[nH]c2ccccc12)C(N)=O)OC)N(C)C(=O)[C@@H](NC(=O)[C@H](C(C)C)N(C)CCCC(=O)O)C(C)C` [Example 18, N-(3-carboxypropyl)-N-methyl-L-valyl-N-[(3R,4S,5S)-1-{(2S)-2-[(1R,2R)-3-{[(2S)-1-amino-3-(1H-indol-3-yl)-1-oxopropane2-yl]amino}-1-methoxy-2-methyl-3-oxopropyl]pyrrolidin-1-yl}-3-methoxy-5-methyl-1-oxoheptan-4-yl]-N-methyl-L-valinamide] ({NMeVal(N-(CH2)3COOH)}-V[Dil][Dolaproine]W-NH2), the results for the IC50 (in data set [1] (Homo sapiens); with HT-29 wt cell line (Homo sapiens)) were 173 nM and 16 nM, respectively. Further, the Papp B→A – broadly, the apparent permeability from the basolateral to the apical side of a cell layer – at 2 h in data set [2] stood at 0.2 ×10⁻⁶ cm/s.
For `CC[C@H](C)[C@@H]([C@@H](CC(=O)N1CCC[C@H]1[C@H](OC)[C@@H](C)C(=O)N[C@H](C)[C@@H](O)c1ccccc1)OC)N(C)C(=O)[C@@H](NC(=O)[C@@H](NC)C(C)C)C(C)C` [MMAE, monomethylauristatin E, reference compound] (H-[NMeV]V[Dil][Dolaproine]-X5), the “Papp (B-A)” value in the data set on Caco-2-cells came to 89 nm/s.
For the compound `CCCNC(=O)[C@]1(NC(=O)[C@H](C)[C@@H](OC)[C@@H]2CCCN2C(=O)C[C@@H](OC)[C@H]([C@@H](C)CC)N(C)C(=O)[C@@H](NC(=O)[C@H](C(C)C)N(C)CCCC(=O)O)C(C)C)C[C@@H]1c1ccccc1` [Example 11, N-(3-carboxypropyl)-N-methyl-L-valyl-N-[(3R,4S,5S)-3-methoxy-1-{(2S)-2-[(1R,2R)-1-methoxy-2-methyl-3-oxo-3-{[(1S,2R)-2-phenyl-1-(propylcarbamoyl)cyclopropyl]amino}propyl]pyrrolidin-1-yl}-5-methyl-1-oxoheptan-4-yl]-N-methyl-L-valinamide], the results for the IC50 (in data set [1] (Homo sapiens); in the data set with HT-29 wt cell line (Homo sapiens)) were 6.7 nM and 0.8 nM, respectively. In addition, the Papp B→A at 2 h in data set [2] worked out at 1.1 ×10⁻⁶ cm/s.
